The subject of this experiment is Aβ40. The experiment in a line: Screen of NIH clinical collection compounds for reduction of Aβ40 in Tg2576 mES cell derived neurons (Aβ40 ELISA). The class given is cell-based, mouse. On the set-up: Percent Inhibition: concentration or dose not given beside the values. Conditions: for Percent Inhibition: Aβ40 in conditioned media vs DMSO control, neurons treated on day 8 after plating for 24 hours; for IC50: Mus musculus, Neuron. As for the experimental part:
In certain embodiments, the inhibitor of the present invention is identified by an assay directed to detecting inhibitors of Aβ40 production. For example, but not by way of limitation, such assays can include assays such as those prepared as follows. First, mouse ES cells isolated from Tg2576 mice are subjected to directed differentiation as previously described. After dissociation of embryoid bodies, neurons are plated in poly-D-lysine and laminin coated 96 well black plates at a density of 1.5×10^5 cells/cm2 which is 45,000 cells/well. Media is changed to N2 containing media after 4 hours and again the next day after plating. Two days after plating, media is changed to B27 containing media which is replaced every 2 days after that. On day 8 after plating the mouse ES derived neurons are treated with the compound of interest. […] In certain embodiments the compounds are incubated with the cells for 24 hours in 150 μl B27 media. In certain embodiments each plate of ES derived neurons is treated with NCC compounds, DMSO (negative control), and the positive controls for Aβ reduction BACE inhibitor IV (Calbiochem) and Compound E. After 24 hours, 100 μl conditioned media can then be removed and frozen at −80° C. until further analysis for Aβ40 content. The remaining cells in 50 μl media can be subjected to cell viability assay CellQuanti Blue (BioAssay Systems). In certain embodiments, conditioned media can be subjected to Aβ40 quantification, e.g., by using Aβ40 ELISA (Invitrogen).
Mouse ES cells isolated from. Tg2576 mice were subjected to directed differentiation as previously described. After dissociation of embryoid bodies, neurons were plated in poly-D-lysine and laminin coated 96 well black plates at a density of 1.5×10^5 cells/cm2 which is 45,000 cells/well. Media was changed to N2 containing media after 4 hours and again the next day after plating. Two days after plating, media was changed to B27 containing media which was replaced every 2 days after that. […] Each plate of ES derived neurons was treated with NCC compounds, DMSO (negative control), and the positive controls for Aβ reduction BACE inhibitor IV (Calbiochem) and Compound E. After 24 hours, 100 μl conditioned media was removed and frozen at −80° C. until further analysis for Aβ40 content. The remaining cells in 50 μl media were subjected to cell viability assay CellQuanti Blue (BioAssay Systems). Conditioned media was subjected to Aβ40 quantification using Aβ40 ELISA (Invitrogen). Compounds which lowered Aβ40 levels in the conditioned media were identified as hits if they reduced Aβ40 by 4 standard deviations of the negative control (DMSO) but maintained cell viability. Cell viability was defined by CellQuanti Blue fluorescent signal maintained within two standard deviations of fluorescent signal from the control treated (DMSO) cells. High potency hits were defined by reducing Aβ40 40% or more (signal 60% of DMSO control).
Hits were defined as lowering Aβ by 4 standard deviations below the negative control (DMSO) treated condition but maintaining cell viability within 2 standard deviations of control.

The values that follow come from patent US9696306B2, “Methods of reducing levels of tau” (The Trustees of Columbia University in the City of New York, priority 2011, dated 2017).

Where a name gives a salt, the structure may show the parent alone. Read-outs that look alike come from different tables or passages of the source.

Consider `O[C@@H]1CCCC[C@H]1N1CCC(c2ccccc2)CC1` [vesamicol hcl], for which the “Percent Inhibition” value worked out at 52%.
Still for that read-out and setting: the figure for `CNS(=O)(=O)Cc1ccc2[nH]cc(CCN(C)C)c2c1` [sumatriptan succinate] is 8%; for `CC[C@H]1OC(=O)[C@H](C)[C@@H](O[C@H]2C[C@@](C)(OC)[C@@H](O)[C@H](C)O2)[C@H](C)[C@@H](O[C@@H]2O[C@H](C)C[C@H](N(C)C)[C@H]2O)[C@](C)(OC)C[C@@H](C)C(=O)[C@H](C)[C@@H](O)[C@]1(C)O` [clarithromycin] it is 22%.
Same read-out and setting: the figure for `CO[C@@H]1[C@@H](O[C@@H]2O[C@H](C)[C@@H](O[C@H]3C[C@@](C)(O)[C@@H](OC(=O)CC(C)C)[C@H](C)O3)[C@H](N(C)C)[C@H]2O)[C@@H](CC=O)C[C@@H](C)[C@@H](O)/C=C/C=C/C[C@@H](C)OC(=O)C[C@H]1O` [kitasamycin] is 16%; for `O=C(NCCN1CCOCC1)c1ccc(Cl)cc1` [4-chloro-n-(2-morpholin-4-yl-ethyl)-benzamide] it is 21%; for `OC[C@H]1O[C@@H](Oc2cc(O)cc(/C=C/c3ccc(O)cc3)c2)[C@H](O)[C@@H](O)[C@@H]1O` [piceid] it is 11%.
Still for that read-out and setting: the figure for `CS(=O)(=O)c1ccc(C2=C(c3ccccc3)C(=O)OC2)cc1` [rofecoxib] is 12%; for `Cc1ncc([N+](=O)[O-])n1CC(O)CCl` (centres unmarked) [orinidazole] it is 9%.
For the compound `COc1ccc(-c2oc3c(CC=C(C)C)c(O[C@@H]4O[C@H](CO)[C@@H](O)[C@H](O)[C@H]4O)cc(O)c3c(=O)c2O[C@@H]2O[C@@H](C)[C@H](O)[C@@H](O)[C@H]2O)cc1` [icariin], the “Percent Inhibition” value is 53% and inhibition was half-maximal at 5.1 µM (IC50).
As for `CC(Oc1c(Cl)cccc1Cl)C1=NCCN1` (centres unmarked) [lofexidine], the “Percent Inhibition” value stood at 17%.
Same read-out and setting: the value for gabexate mesylate was 20%.
`CN1C(C(=O)Nc2ccccn2)=C(O)c2ccccc2S1(=O)=O` [piroxicam]: the “Percent Inhibition” value is given as 9.5%.
Same read-out and setting: the value for `C[C@@H](N=C(NC#N)Nc1ccncc1)C(C)(C)C` [pinacicil] was 17%.
On the same count and under the same terms, the value for salbutamol sulfate was 70%; that for `CC(=O)OCC(=O)NCCCOc1cccc(CN2CCCCC2)c1` [roxatidine acetate] was 12%; that for `Cc1ncc([N+](=O)[O-])n1CC(C)O` (centres unmarked) [1-(2-methyl-5-nitro-imidazol-1-yl)-propan-2-ol] was 12%.
On the same count and under the same terms, the value for `Nc1nc(O)c2ncn(CCC(CO)CO)c2n1` [peniciclovir] was 11%; that for `O=C1N(c2ccccc2)c2ccccc2C1(Cc1ccncc1)Cc1ccncc1` [2h-indol-2-one,1,3-dihydro-1-phenyl-3,3-bis(4-pyridinylmethyl)] was 22%.
`COc1cc(-c2ccc(=O)[nH]n2)ccc1OC(F)F` [pyridazinone, 6-[4-difluoromethoxy)-3-methoxyphenyl]]: the “Percent Inhibition” value is 50%.
On to `CN1C(=O)CN=C(c2ccccc2)c2cc(Cl)ccc21` [diazepam], for which the “Percent Inhibition” value is given as 11%.
The same measure, in the same setting: the figure for `O=C(O)C(Cl)Cl` [dichloroacetic acid] is 11.5%; for `c1cncc([C@@H]2CCCN2)c1` [nornicotine] it is 50%.
The same measure, in the same setting: the value for `CC(C(=O)O)c1ccc(CC2CCCC2=O)cc1` (centres unmarked) [loxoprofen] was 9%; that for `CN1C(=O)CN=C(c2ccccc2)c2cc([N+](=O)[O-])ccc21` [nimetanzepam] was 13%.
The same measure, in the same setting: the value for `COc1cc(OC)c(C(=O)CCCN2CCCC2)c(OC)c1` [buflomedil] was 13%; that for `Cc1nc2ccccn2c(=O)c1CCN1CCC(C(=O)c2ccc(F)cc2)CC1` [pirenperone] was 11%.
As to `NNCCc1ccccc1` [phenelzine sulfate], the “Percent Inhibition” value is 70%. Further, the IC50 (Aβ40 lowering, high priority hits confirmed from independent compound sources, read-out: IC50) was 2.5 µM.
